The values below come from patent publication US11739098B2 (BRISTOL-MYERS SQUIBB COMPANY, priority 2017, dated 2023).

Common to all, as to format: cell-based
For one assay, the target named is T1, human TLR7 (Homo sapiens, UniProt Q9NYK1).
T1 construct: host or cells: HEK-Blue cells (HEK293-derived reporter line)
T1 sequence (Q9NYK1 27-1049): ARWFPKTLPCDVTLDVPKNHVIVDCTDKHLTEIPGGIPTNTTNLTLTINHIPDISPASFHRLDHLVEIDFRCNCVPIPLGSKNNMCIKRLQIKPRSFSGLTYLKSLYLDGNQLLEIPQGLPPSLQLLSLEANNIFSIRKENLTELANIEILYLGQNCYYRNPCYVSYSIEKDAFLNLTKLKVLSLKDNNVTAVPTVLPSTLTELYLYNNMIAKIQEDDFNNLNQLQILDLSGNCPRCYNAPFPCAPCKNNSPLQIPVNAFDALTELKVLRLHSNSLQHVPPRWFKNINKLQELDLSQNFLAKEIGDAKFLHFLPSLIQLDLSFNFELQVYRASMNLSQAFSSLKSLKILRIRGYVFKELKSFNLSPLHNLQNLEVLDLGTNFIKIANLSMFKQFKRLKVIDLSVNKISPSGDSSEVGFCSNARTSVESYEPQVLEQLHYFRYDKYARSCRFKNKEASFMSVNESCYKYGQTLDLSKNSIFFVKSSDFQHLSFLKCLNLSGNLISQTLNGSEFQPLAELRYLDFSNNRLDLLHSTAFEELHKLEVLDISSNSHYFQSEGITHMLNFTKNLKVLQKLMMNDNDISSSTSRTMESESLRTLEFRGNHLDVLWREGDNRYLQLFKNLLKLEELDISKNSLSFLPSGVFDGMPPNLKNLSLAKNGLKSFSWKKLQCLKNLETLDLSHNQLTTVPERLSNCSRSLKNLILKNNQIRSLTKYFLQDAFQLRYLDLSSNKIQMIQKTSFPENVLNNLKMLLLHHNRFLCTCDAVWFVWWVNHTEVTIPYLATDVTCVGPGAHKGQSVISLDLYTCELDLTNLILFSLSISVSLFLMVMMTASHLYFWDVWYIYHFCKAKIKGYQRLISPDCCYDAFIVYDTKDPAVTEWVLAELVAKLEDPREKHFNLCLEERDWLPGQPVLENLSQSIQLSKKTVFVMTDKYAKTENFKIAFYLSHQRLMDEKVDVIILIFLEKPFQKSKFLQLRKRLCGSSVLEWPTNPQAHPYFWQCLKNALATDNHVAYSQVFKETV
As to the kind of experiment: TLR7 inhibition reporter assay (HEK-Blue cells, SEAP reporter, gardiquimod stimulation). The note with it: HEK-Blue cells overexpressing human TLR7, SEAP reporter, gardiquimod 7.5 μM. Summed up: (§1)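 Agonists (final): TLR7 gardiquimod 7.5 μM; TLR8 R848 15.9 μM; TLR9 ODN2006 5 nM. HEK-Blue reporter cells, 30 min RT compound pre-incubation, 0.05 nM–50 μM dose range, 22 h at 37 °C, colorimetric SEAP detection medium. % inhibition relative to agonist+DMSO and known-inhibitor wells.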
For orientation: Reporter assays use an easily measured gene product as a stand-in for the process of interest.

The target in another assay is T2, human TLR8 (Homo sapiens, UniProt Q9NR97).
T2 construct: host or cells: HEK-Blue cells (HEK293-derived reporter line)
T2 sequence (Q9NR97 27-1041): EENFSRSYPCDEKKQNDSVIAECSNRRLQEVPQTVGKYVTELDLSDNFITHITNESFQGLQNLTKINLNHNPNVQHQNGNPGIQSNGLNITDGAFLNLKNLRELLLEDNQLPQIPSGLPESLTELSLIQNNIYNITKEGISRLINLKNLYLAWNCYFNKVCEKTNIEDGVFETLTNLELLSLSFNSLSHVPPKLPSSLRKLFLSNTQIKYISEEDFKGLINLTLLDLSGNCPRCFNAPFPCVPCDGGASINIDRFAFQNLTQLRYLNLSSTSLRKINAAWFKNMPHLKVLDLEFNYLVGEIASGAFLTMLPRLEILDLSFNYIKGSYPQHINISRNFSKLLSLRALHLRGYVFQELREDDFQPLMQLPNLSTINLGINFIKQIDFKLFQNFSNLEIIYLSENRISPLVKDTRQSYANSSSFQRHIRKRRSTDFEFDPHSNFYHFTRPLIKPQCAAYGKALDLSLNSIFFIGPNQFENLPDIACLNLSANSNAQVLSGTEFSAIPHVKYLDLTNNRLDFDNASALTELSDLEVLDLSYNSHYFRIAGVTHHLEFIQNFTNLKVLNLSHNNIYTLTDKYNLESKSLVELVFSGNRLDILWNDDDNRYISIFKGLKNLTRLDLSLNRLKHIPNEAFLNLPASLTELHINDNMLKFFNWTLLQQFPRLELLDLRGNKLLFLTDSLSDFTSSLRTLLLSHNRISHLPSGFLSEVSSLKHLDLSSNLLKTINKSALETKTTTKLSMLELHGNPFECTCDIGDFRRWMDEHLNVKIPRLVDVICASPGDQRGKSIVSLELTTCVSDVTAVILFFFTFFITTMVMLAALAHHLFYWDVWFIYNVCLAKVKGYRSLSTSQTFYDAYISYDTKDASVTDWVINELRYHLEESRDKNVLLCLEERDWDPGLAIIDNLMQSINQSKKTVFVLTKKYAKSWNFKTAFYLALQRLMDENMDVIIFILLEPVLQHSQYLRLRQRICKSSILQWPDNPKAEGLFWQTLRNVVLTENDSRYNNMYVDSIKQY
The assay can be described thus: TLR8 inhibition reporter assay (HEK-Blue cells, SEAP reporter, R848 stimulation). The settings on record: HEK-Blue cells overexpressing human TLR8, SEAP reporter, R848 15.9 μM. Summed up: as §1

In a further assay the target is T3, human TLR9 (Homo sapiens, UniProt Q9NR96).
T3 construct: host or cells: HEK-Blue cells (HEK293-derived reporter line)
T3 sequence (Q9NR96 26-1032): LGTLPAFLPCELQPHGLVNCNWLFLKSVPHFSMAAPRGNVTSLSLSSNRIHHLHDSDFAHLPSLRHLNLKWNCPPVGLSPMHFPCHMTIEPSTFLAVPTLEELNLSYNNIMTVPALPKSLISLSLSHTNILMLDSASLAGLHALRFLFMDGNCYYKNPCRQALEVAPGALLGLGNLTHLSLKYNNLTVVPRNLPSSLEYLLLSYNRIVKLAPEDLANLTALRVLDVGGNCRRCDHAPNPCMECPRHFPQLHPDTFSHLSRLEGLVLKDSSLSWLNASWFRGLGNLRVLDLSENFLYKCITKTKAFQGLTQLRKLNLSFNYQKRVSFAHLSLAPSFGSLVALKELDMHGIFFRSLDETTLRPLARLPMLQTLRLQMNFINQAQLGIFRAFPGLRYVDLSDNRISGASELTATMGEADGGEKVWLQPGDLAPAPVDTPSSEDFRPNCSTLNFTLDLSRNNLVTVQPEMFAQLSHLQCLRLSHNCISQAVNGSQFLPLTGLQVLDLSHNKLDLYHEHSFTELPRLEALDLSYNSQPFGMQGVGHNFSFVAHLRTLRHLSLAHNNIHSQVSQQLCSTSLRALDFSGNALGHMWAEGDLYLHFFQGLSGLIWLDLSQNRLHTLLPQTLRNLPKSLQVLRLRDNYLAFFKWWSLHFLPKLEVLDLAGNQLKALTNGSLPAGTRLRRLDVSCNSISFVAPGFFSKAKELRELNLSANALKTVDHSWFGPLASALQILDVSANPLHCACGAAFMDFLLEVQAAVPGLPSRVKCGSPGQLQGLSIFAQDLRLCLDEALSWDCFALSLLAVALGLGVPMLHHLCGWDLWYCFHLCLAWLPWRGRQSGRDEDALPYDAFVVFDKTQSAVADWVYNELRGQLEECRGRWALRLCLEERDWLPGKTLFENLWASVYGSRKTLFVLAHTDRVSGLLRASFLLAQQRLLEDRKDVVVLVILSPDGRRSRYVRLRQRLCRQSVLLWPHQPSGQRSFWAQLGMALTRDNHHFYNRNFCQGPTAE
The assay can be described thus: TLR9 inhibition reporter assay (HEK-Blue cells, SEAP reporter, ODN2006 stimulation). The note with it: HEK-Blue cells overexpressing human TLR9, SEAP reporter, ODN2006 5 nM. In a few lines: as §1

Turning to `Cc1cc(-c2[nH]c3ccc(C4CCNCC4)cc3c2C(C)C)cc2ocnc12` [Example 234, 6-(3-isopropyl-5-(piperidin-4-yl)-1H-indol-2-yl)-4-methylbenzo[d]oxazole], the 50% inhibitory concentration (IC50) against human TLR7 is less than 100 nM; against human TLR8 it was less than 100 nM; against human TLR9 it was 1000 to 50000 nM.
With `CC(C)c1c(-c2ccc(C#N)c3[nH]ncc23)[nH]c2ccc(C3CCNCC3)cc12` [Example 235, 4-(3-isopropyl-5-(piperidin-4-yl)-1H-indol-2-yl)-1H-indazole-7-carbonitrile], the half-maximal inhibitory concentration (IC50) against human TLR7, on human TLR8 and against human TLR9 was 1000 to 50000 nM each time.
Turning to `CCc1c(-c2ccnc3[nH]ccc23)[nH]c2ccc(C3CCNCC3)cc12` [Example 236, 4-(3-ethyl-5-(piperidin-4-yl)-1H-indol-2-yl)-1H-pyrrolo[2,3-b]pyridine], the half-maximal inhibitory concentration (IC50) at human TLR7 is less than 100 nM; at human TLR8, less than 100 nM; against human TLR9 it was 100 to 1000 nM.
`CC(C)c1c(-c2cn3cnnc3c(=O)n2C)[nH]c2ccc(C3CCNCC3)cc12` [Example 237, 6-(3-isopropyl-5-(piperidin-4-yl)-1H-indol-2-yl)-7-methyl-[1,2,4]triazolo[4,3-a]pyrazin-8(7H)-one]: the results for the IC50 on human TLR7, at human TLR8 and against human TLR9 were greater than 3130 nM, greater than 3130 nM and 1000 to 50000 nM, respectively.
Regarding `CCc1c(-c2ccnc3c(N)n[nH]c23)[nH]c2ccc(C3CCNCC3)cc12` [Example 238, 7-(3-ethyl-5-(piperidin-4-yl)-1H-indol-2-yl)-1H-pyrazolo[4,3-b]pyridin-3-amine], the IC50 was less than 100 nM against human TLR7, 100 to 1000 nM against human TLR8 and 1000 to 50000 nM on human TLR9.
In the case of `CCc1c(-c2ccnc3c(N)noc23)[nH]c2ccc(C3CCNCC3)cc12` [Example 239, 7-(3-ethyl-5-(piperidin-4-yl)-1H-indol-2-yl)isoxazolo[4,5-b]pyridin-3-amine], the IC50 lay within 1000 to 50000 nM at human TLR7, 100 to 1000 nM against human TLR8 and 100 to 1000 nM against human TLR9.
As to `CCc1c(-c2cnc3c(N)n[nH]c3c2)[nH]c2ccc(C3CCNCC3)cc12` [Example 240, 6-(3-ethyl-5-(piperidin-4-yl)-1H-indol-2-yl)-1H-pyrazolo[4,3-b]pyridin-3-amine], the IC50 on human TLR7, on human TLR8 and against human TLR9 was 1000 to 50000 nM in each case.
Turning to `CCc1c(-c2c[nH]c3ncncc23)[nH]c2ccc(C3CCNCC3)cc12` [Example 241, 5-(3-ethyl-5-(piperidin-4-yl)-1H-indol-2-yl)-7H-pyrrolo[2,3-d]pyrimidine], the values for the 50% inhibitory concentration (IC50) at human TLR7, at human TLR8 and at human TLR9 were less than 100 nM, less than 100 nM and 1000 to 50000 nM, respectively.
On to `CC(C)c1c(-c2ccc3ncnn3n2)[nH]c2ccc(C3CCNCC3)cc12` [Example 242, 6-(3-isopropyl-5-(piperidin-4-yl)-1H-indol-2-yl)-[1,2,4]triazolo[1,5-b]pyridazine], for which the IC50 was less than 100 nM on human TLR7, less than 100 nM at human TLR8 and 1000 to 50000 nM against human TLR9.
Take `CCc1c(-c2c[nH]c3ncccc23)[nH]c2ccc(C3CCNCC3)cc12` [Example 243, 3-(3-ethyl-5-(piperidin-4-yl)-1H-indol-2-yl)-1H-pyrrolo[2,3-b]pyridine]: the IC50 is less than 100 nM against human TLR7, less than 100 nM at human TLR8 and 100 to 1000 nM against human TLR9.
As to `CCc1c(-c2n[nH]c3ncccc23)[nH]c2ccc(C3CCNCC3)cc12` [Example 244, 3-(3-ethyl-5-(piperidin-4-yl)-1H-indol-2-yl)-1H-pyrazolo[3,4-b]pyridine], the IC50 on human TLR7 lay within 100 to 1000 nM; on human TLR8, 100 to 1000 nM; at human TLR9, 1000 to 50000 nM.
Consider `CCc1c(-c2cnnc3[nH]ccc23)[nH]c2ccc(C3CCNCC3)cc12` [Example 245, 4-(3-ethyl-5-(piperidin-4-yl)-1H-indol-2-yl)-7H-pyrrolo[2,3-c]pyridazine], for which the IC50 lay within 100 to 1000 nM on human TLR7, 100 to 1000 nM against human TLR8 and 1000 to 50000 nM against human TLR9.
Regarding `CCc1c(-c2c(C)cnc3[nH]ccc23)[nH]c2ccc(C3CCNCC3)cc12` [Example 246, 4-(3-ethyl-5-(piperidin-4-yl)-1H-indol-2-yl)-5-methyl-1H-pyrrolo[2,3-b]pyridine], the IC50 at human TLR7 was less than 100 nM; against human TLR8, less than 100 nM; on human TLR9, 100 to 1000 nM.
For the compound `Cc1cnc2[nH]ccc2c1-c1[nH]c2ccc(C3CCNCC3)cc2c1C(C)C` [Example 247, 4-(3-isopropyl-5-(piperidin-4-yl)-1H-indol-2-yl)-5-methyl-1H-pyrrolo[2,3-b]pyridine], the IC50 at human TLR7 is less than 100 nM; at human TLR8, less than 100 nM; against human TLR9, 1000 to 50000 nM.
As for `CC(C)c1c(-c2ccnc3[nH]ncc23)[nH]c2ccc(C3CCNC(=O)C3)cc12` (stereo not drawn) [Example 248, 4-(3-Isopropyl-2-(1H-pyrazolo[3,4-b]pyridin-4-yl)-1H-indol-5-yl)piperidin-2-one], the IC50 was 100 to 1000 nM on human TLR7, less than 100 nM against human TLR8 and greater than 50000 nM against human TLR9.

In general, IC50 refers to the point on the concentration scale where inhibition reaches its midpoint. High values mean weaker potency, low ones greater potency.
